Where two headings read alike, the source gives them in different places.
Assays:
[1] = target: human CB2 receptors (Homo sapiens (Human), UniProt P34972); assay: human CB2 radioligand binding assay ([3H]CP 55,940 competition)
Method in brief: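 Membranes from HEK293 cells stably expressing human CB2 (5 μg protein/well) competed against 0.5 nM [3H]CP 55,940 with five concentrations of test ligand (0.01 nM to 10 μM), pH 7.4 Tris buffer with BSA, 90 min at 30 °C. Filtration and scintillation counting; nonspecific binding with 10 μM unlabeled CP 55,940.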

[2] = target: T1, rat CB2 (Rattus norvegicus (Rat), UniProt Q9QZN9); assay: rat CB2 radioligand binding assay ([3H]CP 55,940 competition)
T1 sequence (Q9QZN9 whole entry): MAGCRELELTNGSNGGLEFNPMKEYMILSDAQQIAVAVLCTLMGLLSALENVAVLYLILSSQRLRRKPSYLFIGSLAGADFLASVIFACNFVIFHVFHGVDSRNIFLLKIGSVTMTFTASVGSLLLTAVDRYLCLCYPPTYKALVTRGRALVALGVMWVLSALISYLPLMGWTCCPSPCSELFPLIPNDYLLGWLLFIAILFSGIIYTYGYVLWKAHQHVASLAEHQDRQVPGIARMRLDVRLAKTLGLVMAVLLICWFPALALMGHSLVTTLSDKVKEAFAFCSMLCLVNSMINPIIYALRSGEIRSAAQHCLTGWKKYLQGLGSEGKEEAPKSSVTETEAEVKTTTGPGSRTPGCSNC
Method in brief: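 Membranes from HEK293 cells stably expressing rat CB2 (20 μg protein/well) competed with 0.5 nM [3H]CP 55,940 and five displacer concentrations, 45 min at 30° C in Tris/EDTA/MgCl2/BSA buffer pH 7.4. Filtration and scintillation counting; nonspecific binding with 10 μM unlabeled CP 55,940.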

[3] = target: T1, rat CB2; assay: CB2 cyclase functional assay (HitHunter cAMP); type: cell-based; conditions: HEK cells, forskolin 18 μM
Description: (§1) The cyclase functional assays were performed using the HitHunter™ cAMP assay kit from DiscoveRx (Fremont, Calif.) according to vendor's protocol. Briefly, HEK cells expressing CB2 or CB1 receptors (rat or human) were detached using cell dissociation buffer (Invitrogen, Carlsbad, Calif.), dispersed and placed in suspension at 10,000 cells per well in 96 well plates prior to the assay. Cell suspensions were incubated at 37° C. for 20 min with variable concentrations of test ligands and or 10 μM CP 55,940-positive control in the presence of a fixed concentration of forskolin (18 μM for rat CB2 and 37 μM for rat CB1) in Dulbescco's phosphate-buffered saline (Invitrogen, Carlsbad, Calif.) supplemented with bovine serum albumin (0.01% final concentration). The reactions were terminated by the addition of lysis buffer and the luminescence was detected following the procedure according to the manufacturer's instructions. EC50 values were calculated using sigmoidal dose-response curve fitting from Prism (GraphPad).

[4] = target: rat CB1 (Rattus norvegicus (Rat), UniProt P20272); assay: CB1 cyclase functional assay (HitHunter cAMP); type: cell-based; conditions: HEK cells, forskolin 37 μM; read-out: rCB1 cyclase (EC50)
Description: as §1

[5] = system: β-amyloid-induced microglial activation; conditions: in vitro; cited from earlier work
[6] = acute thermal, persistent, inflammatory, neuropathic pain models; cited from earlier work
[7] = system: rat; conditions: rat formalin model; cited from earlier work
[8] = neuropathic, incisional, chronic and acute inflammatory pain; cited from earlier work
[9] = system: apolipoprotein E knockout mice; conditions: low doses; cited from earlier work
[10] = system: mice; conditions: cited from earlier work
[11] = HEK293 membranes, 0.5 nM [3H]CP 55,940, read-out: human CB2 (Ki)
[12] = HEK293 membranes, 0.5 nM [3H]CP 55,940, read-out: rat CB2 (Ki)

Chain of human CB2 receptors (P34972 whole entry): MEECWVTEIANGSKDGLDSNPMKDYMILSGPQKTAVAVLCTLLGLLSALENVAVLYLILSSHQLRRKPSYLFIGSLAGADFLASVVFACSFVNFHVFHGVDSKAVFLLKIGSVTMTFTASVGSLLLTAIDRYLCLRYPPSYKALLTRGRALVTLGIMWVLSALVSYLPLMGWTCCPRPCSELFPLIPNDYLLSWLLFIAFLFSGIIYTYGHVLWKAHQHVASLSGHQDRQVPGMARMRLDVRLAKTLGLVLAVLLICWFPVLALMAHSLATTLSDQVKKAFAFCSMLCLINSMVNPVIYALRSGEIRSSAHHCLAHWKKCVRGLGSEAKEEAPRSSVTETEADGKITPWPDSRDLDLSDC

Molecule | Ki [1, 11] | Ki [2, 12] | EC50 [3] | EC50 [4] | other results
CCCCn1nc(C(C)(C)C)s/c1=N\C(=O)c1cc(C(F)(F)F)ccc1ON=C(C)C(F)(F)F [Example 172, N-[(2Z)-3-butyl-5-tert-butyl-1,3,4-thiadiazol-2(3H)-ylidene]-5-(trifluoromethyl)-2-({[2,2,2-trifluoro-1-methylethylidene]amino}oxy)benzamide] | 52 nM | 60 nM | 28 nM | > 27000 nM | 
CCCC(C)(C)c1ccc2c(c1)OC(C)(C)[C@@H]1CC=C(C)C[C@@H]21 [JWH-133] |  |  |  |  | effect on β-amyloid-induced microglial activation and neurotoxicity [5]: abrogated β-amyloid-induced microglial activation and neurotoxicity
CCCCn1nc(C(C)(C)C)s/c1=N\C(=O)c1cc(C(F)(F)F)ccc1ONC(C)=O [Example 154, 2-[(acetylamino)oxy]-N-[(2Z)-3-butyl-5-tert-butyl-1,3,4-thiadiazol-2(3H)-ylidene]-5-(trifluoromethyl)benzamide] | 1 nM | 1 nM | 1.5 nM | 58 nM | 
Cn1c(C(C)(C)C)c/c(=N\C(=O)c2cc(C(F)(F)F)ccc2ONC(C)(C)C)n1C[C@H]1CCCO1 [Example 142, 2-[(tert-butylamino)oxy]-N-{(3E)-5-tert-butyl-1-methyl-2-[(2R)-tetrahydrofuran-2-ylmethyl]-1,2-dihydro-3H-pyrazol-3-ylidene}-5-(trifluoromethyl)benzamide] |  |  |  | > 27000 nM | Ki [1]: 24 nM; Ki [2]: 9.4 nM
CN1CCCCC1Cn1cc(C(=O)c2cc([N+](=O)[O-])ccc2I)c2ccccc21 (stereo not shown) [AM-1241] |  |  |  |  | analgesic efficacy [6]: robust analgesic efficacy
CCCCCCC(C)(C)c1cc(OC)c([C@@H]2C=C(CO)[C@@H]3C[C@H]2C3(C)C)c(OC)c1 [HU-308] |  |  |  |  | antinociceptive response [7]: elicits an antinociceptive response
COc1ccc2c(c1)c(CCN1CCOCC1)c(C)n2C(=O)c1cccc(Cl)c1Cl [GW405833] |  |  |  |  | efficacy in pain models [8]: efficacious
CC(C)(C)NOc1ccc(C(F)(F)F)cc1C(=O)/N=c1\sc(C(C)(C)C)nn1CCCC#N [Example 151, 2-[(tert-butylamino)oxy]-N-[(2Z)-5-tert-butyl-3-(3-cyanopropyl)-1,3,4-thiadiazol-2(3H)-ylidene]-5-(trifluoromethyl)benzamide] | 4.3 nM | 1.2 nM | 0.13 nM | 938 nM | 
CCCCn1nc(C(C)(C)C)s/c1=N\C(=O)c1cc(C(F)(F)F)ccc1ON=C(N)C(C)(C)C [Example 166, 2-({[1-amino-2,2-dimethylpropylidene]amino}oxy)-N-[(2Z)-3-butyl-5-tert-butyl-1,3,4-thiadiazol-2(3H)-ylidene]-5-(trifluoromethyl)benzamide] | 65 nM | 43 nM | 3.14 nM | 6960 nM | 
CC(C)(C)NOc1ccc(C(F)(F)F)cc1C(=O)/N=c1\sc(C(C)(C)C)nn1C[C@H]1CCCO1 [Example 153, 2-[(tert-butylamino)oxy]-N-[(2Z)-5-tert-butyl-3-[(2R)-tetrahydrofuran-2-ylmethyl]-1,3,4-thiadiazol-2(3H)-ylidene]-5-(trifluoromethyl)benzamide] | 10 nM | 3.2 nM | 0.24 nM | > 27000 nM | 
CCCCn1nc(C(C)(C)C)s/c1=N\C(=O)c1cc(C(F)(F)F)ccc1ONC(C)C [Example 144, N-[(2Z)-3-butyl-5-tert-butyl-1,3,4-thiadiazol-2(3H)-ylidene]-2-[(isopropylamino)oxy]-5-(trifluoromethyl)benzamide] | 0.6 nM | 0.8 nM | 0.22 nM | 415 nM | 
CC(C)(C)NOc1ccc(C(F)(F)F)cc1C(=O)/N=c1\sc(C(C)(C)C)nn1CC1CCC1 [Example 165, 2-[(tert-butylamino)oxy]-N-[(2Z)-5-tert-butyl-3-(cyclobutylmethyl)-1,3,4-thiadiazol-2(3H)-ylidene]-5-(trifluoromethyl)benzamide] | 2.8 nM | 0.8 nM | 0.93 nM | 925 nM | 
(−)-Δ^9-Tetrahydrocannabinol [THC] |  |  |  |  | effect on progression of atherosclerotic lesions [9]: slowed the progression of atherosclerotic lesions
CC(C)(C)NOc1ccc(C(F)(F)F)cc1C(=O)/N=c1\sc(C(C)(C)C)nn1CCCC(F)(F)F [Example 164, 2-[(tert-butylamino)oxy]-N-[(2Z)-5-tert-butyl-3-(4,4,4-trifluorobutyl)-1,3,4-thiadiazol-2(3H)-ylidene]-5-(trifluoromethyl)benzamide] | 1.8 nM | 0.3 nM | 0.28 nM | 1020 nM | 
SR144528 |  |  |  |  | effect on osteoclast activity and ovariectomy-induced bone loss [10]: inhibit osteoclast activity and reverse ovariectomy-induced bone loss
CCCCn1nc(C(C)(C)C)s/c1=N\C(=O)c1cc(C(F)(F)F)ccc1ONC(C)(C)C [Example 34, 2-[(tert-butylamino)oxy]-N-[(2Z)-3-butyl-5-tert-butyl-1,3,4-thiadiazol-2(3H)-ylidene]-5-(trifluoromethyl)benzamide] | 11 nM | 1.9 nM | 0.43 nM | > 27000 nM | 
CCCCn1nc(C(C)(C)C)s/c1=N\C(=O)c1cc(C(F)(F)F)ccc1ONC(=O)OC(C)(C)C [Example 141, tert-butyl 2-({[(2Z)-3-butyl-5-tert-butyl-1,3,4-thiadiazol-2(3H)-ylidene]amino}carbonyl)-4-(trifluoromethyl)phenoxycarbamate] |  |  | 1.12 nM | 273 nM | Ki [1]: 0.32 nM; Ki [2]: 2.3 nM

Reference: patent publication US8859596B2, “Compounds as cannabinoid receptor ligands” (priority 2008, dated 2014)
